Experimental data reported in publication PMC12351382, “Fibrinography and thrombography (thrombodynamics-4D) in atrial fibrillation assessment of direct oral anticoagulants in geriatrics patients aged 80 years and older receiving direct oral anticoagulant therapy” (Research and Practice in Thrombosis and Haemostasis, 2025).

Assays:
[1] = Plasma DOAC concentration in ADAGE patients (chromogenic anti-FXa assay for rivaroxaban and apixaban; anti-FIIa Hemoclot assay for dabigatran); assay type: in vivo, human; settings: for DOAC concentration, median (IQR): ADAGE patients ≥80 y, reduced dose: rivaroxaban 15 mg once daily, apixaban 2.5 mg twice daily, dabigatran 110 mg twice daily; for DOAC concentration, range: ADAGE patients, reduced dose (regimens as E1)
Text: (§1) ADAGE is an academic, prospective, observational multicenter study (NCT 02464488; for details, see Foulon-Pinto et al.). We recruited hospitalized patients from the university hospital’s geriatric department (Assistance Publique-Hôpitaux de Paris, Paris, France). […] The DOAC dose regimen was at the discretion of the physician. Exclusion criteria included any acute, unstable comorbid condition or an estimated life expectancy of a few weeks. Sampling (see below) and last DOAC intake times were recorded on a standardized request form. Sampling time points were at the discretion of the physicians over a period of 20 days following inclusion. Time points were classified according to the time elapsed from the last oral intake (T, hours) for patients receiving rivaroxaban. T1 to T4 corresponded to peak time (Tmax), and T20 to T24 corresponded to trough (Tmin). […] Physicians prospectively collected demographic, clinical, and laboratory data (including creatinine clearance [CrCl] calculated with the Cockcroft–Gault formula). The study was approved by the institutionnel Ethics Committee (Comité consultatif de protection des personnes pour la recherche biomédicale–Île-de-France-6–number 15.074bis). All participants gave written informed consent to participate in the study. Only patients for whom remaining plasma aliquots were available were included in the present study.
(§2) Tubes were sent to each centre’s laboratory within 2 hours after sampling and immediately double-centrifuged for 15 minutes at 2000 × g at 15 to 22 °C to obtain platelet-poor plasma. Plasma samples (500 μL aliquots) were stored at −80 °C prior to shipment on dry ice for central analysis (Haematology Laboratory, Hôpital Lariboisière). Plasma samples were thawed for 3 to 5 minutes in a 37 °C water bath just before testing.
Dedicated calibrations and controls were used. The lower limit of quantification was 20 ng/mL for the 3 assays.

[2] = tested on: fibrin clot formation; assay: Thrombodynamics-4D fibrinography in plasma samples from ADAGE patients on DOACs; assay type: in vivo, human
Text: as §1, §2
(§3) The TD-4D assay was performed centrally using the Thrombodynamics analyzer system (Hemacore, Diapharma) with the TD-4D PLS dedicated kit (Hemacore, Diapharma). The system simultaneously measures spatiotemporal parameters of fibrin clot formation (fibrinography) and TG process (thrombography) in a thin layer of unstirred plasma. Briefly, 120 μL of platelet-poor plasma is added to a microcuvette containing corn trypsin inhibitor to prevent contribution of contact phase activation, then 5 μL of phospholipid solution (manufacturer’s reagent) is added. After incubation for 15 minutes at 37 °C in the Thrombodynamics device, the mixture is transferred to a second microcuvette containing calcium ions, and then immediately transferred to the measurement cuvette. Finally, the activator insert, whose surface is coated with immobilized tissue factor (100 pmol/m^2), is then transferred to the cuvette. The process of fibrin clot formation is recorded in a time-lapse video-microscopy mode using a dark-field light scattering method. Simultaneously, the system monitors TG by fluorimetry, based on the ability of thrombin to cleave a fluorogenic substrate, 7-amino-4-methylcoumarin (AMC) bound to a short amino acid sequence (Arg-Gly-Gly). The rate of AMC formation is proportional to local thrombin concentration. The microcuvette is maintained at 37 °C and is illuminated with red (625 nm) or ultra-violet (365 nm) light emitting diodes. Clot growth is detected with red light scattering, while AMC fluorescence is detected with UV. Scattered red light and fluorescence passing through the macro lens are recorded by a charge-coupled device system. Images under red and blue light are acquired once per minute. The whole analysis lasts 1 hour. The Thrombodynamics software (Hemacore, Diapharma) calculates parameters of spatiotemporal dynamics of fibrin clot formation and TG [40, 46]. […]

[3] = tested on: thrombin generation; assay: Thrombodynamics-4D thrombography in plasma samples from ADAGE patients on DOACs; assay type: in vivo, human; settings: for ETP (endogenous thrombin potential, ETP_ATG), median (IQR) / ETP (endogenous thrombin potential, ETP_ATG), range / Thrombin peak height (Cmax_ATG), median (IQR) / Thrombin peak height (Cmax_ATG), range / Thrombography Tlag (Lag_ATG), median (IQR) / Thrombography Tlag (Lag_ATG), range / Time to peak (Tmax_ATG), median (IQR) / Time to peak (Tmax_ATG), range: ADAGE patients, reduced dose (regimens as E1)
Text: as §1, §2, §3

[4] = tested on: fibrin clot formation; assay: Thrombodynamics-4D fibrinography in pooled normal plasma (Cryocheck) spiked with DOACs; assay type: biochemical, human; settings: 0 to 1000 nM, mainly at low DOAC concentrations
Protocol: (§4) Frozen pooled normal plasma samples (Cryocheck-Cryopep) were spiked with increasing concentrations of DOACs (0-450 ng/mL), as previously described. […] were kindly provided by Bristol Myers Squibb/Pfizer, Bayer Healthcare, and Boehringer Ingelheim, respectively.
The TD-4D assay was performed centrally using the Thrombodynamics analyzer system (Hemacore, Diapharma) with the TD-4D PLS dedicated kit (Hemacore, Diapharma). The system simultaneously measures spatiotemporal parameters of fibrin clot formation (fibrinography) and TG process (thrombography) in a thin layer of unstirred plasma. Briefly, 120 μL of platelet-poor plasma is added to a microcuvette containing corn trypsin inhibitor to prevent contribution of contact phase activation, then 5 μL of phospholipid solution (manufacturer’s reagent) is added. […] The process of fibrin clot formation is recorded in a time-lapse video-microscopy mode using a dark-field light scattering method. […] Clot growth is detected with red light scattering, while AMC fluorescence is detected with UV. Scattered red light and fluorescence passing through the macro lens are recorded by a charge-coupled device system. […]
(§5) The following fibrinography parameters were recorded (see Supplementary Table 1): (i) lag time (Tlag, minutes); (ii) initial rate of clot growth (Vi, μm/min); (iii) rate of clot growth (V, μm/min); (iv) clot size (CS, μm) measured at 30 minutes; (v) clot density (D, arbitrary units); (vi) time to spontaneous clotting (Tsp, minutes). The following thrombography parameters (at the near-activator area) were recorded (see Supplementary Table 1): (i) Tlag (minutes); (ii) time to thrombin peak (minutes); (iii) maximal thrombin concentration (ie, thrombin peak height, Cmax_ATG, AU/L); (iv) endogenous thrombin potential (ETP_ATG, AU⋅min/L); (v) stationary amplitude of moving peak of thrombin (Ast, AU/L); (vi) rate of thrombin peak propagation (μm/min; see Supplementary Videos 1–3).

[5] = tested on: thrombin generation; assay: Thrombodynamics-4D thrombography in pooled normal plasma (Cryocheck) spiked with DOACs; assay type: biochemical, human
Protocol: as §4
as §3, with “minute.” for “minute. The whole analysis lasts 1 hour. The Thrombodynamics software (Hemacore, Diapharma) calculates parameters of spatiotemporal dynamics of fibrin clot formation and TG [40, 46].”
as §5

[6] = all ADAGE patient samples, any time point and dose
[7] = Tmax (peak), ADAGE patients, reduced dose (regimens as E1)
[8] = Tmin (trough), ADAGE patients, reduced dose (regimens as E1)
[9] = all ADAGE patient samples, Spearman
[10] = univariate analysis, Tmax, line marked Halving
[11] = univariate analysis, Tmin, line marked Halving

Structure (SMILES): [H]/N=C(/N)c1ccc(NCc2nc3cc(C(=O)N(CCC(=O)O)c4ccccn4)ccc3n2C)cc1 [Dabigatran]
- DOAC concentration, median (IQR) ([1]; Tmax (peak)): 171 (123-280) ng/mL
- DOAC concentration, range ([1]; Tmax (peak)): 79 to 665 ng/mL
- DOAC concentration, median (IQR) ([1]; Tmin (trough)): 39 (20-70) ng/mL
- DOAC concentration, range ([1]; Tmin (trough)): 20 to 106 ng/mL
- DOAC plasma concentration, lower end of range [1, 6]: < 20 ng/mL
- DOAC plasma concentration, upper end of range [1, 6]: 665 ng/mL
- CS (clot size at 30 minutes), median (IQR) [2, 7]: 1436 (1332-1583) μm
- CS (clot size at 30 minutes), range [2, 7]: 1273-2125 μm
- D (clot density), median (IQR) [2, 7]: 28,810 (27,570-29,170) a.u.
- D (clot density), range [2, 7]: 22,740-29,360 a.u.
- Fibrinography Tlag (lag time), median (IQR) [2, 7]: 1.3 (1.2-2.0) min
- Fibrinography Tlag (lag time), range [2, 7]: 1.0 to 3.9 min
- Initial rate of clot growth (Vi), median (IQR) [2, 7]: 60.9 (57.8-65.6) μm/min
- Initial rate of clot growth (Vi), range [2, 7]: 54.5-74.4 μm/min
- Time to Tsp (spontaneous clotting), range [2, 7]: 9.8 to 58.5 min
- CS (clot size at 30 minutes), median (IQR) [2, 8]: 1707 (1634-1904) μm
- CS (clot size at 30 minutes), range [2, 8]: 1612-2205 μm
- D (clot density), median (IQR) [2, 8]: 32,220 (30,160-36,290) a.u.
- D (clot density), range [2, 8]: 26,190-39,810 a.u.
- Fibrinography Tlag (lag time), median (IQR) [2, 8]: 1.0 (0.9-1.1) min
- Fibrinography Tlag (lag time), range [2, 8]: 0.8 to 1.3 min
- Initial rate of clot growth (Vi), median (IQR) [2, 8]: 70.3 (66.9-75.1) μm/min
- Initial rate of clot growth (Vi), range [2, 8]: 57.5-79.5 μm/min
- Time to Tsp (spontaneous clotting), median (IQR) [2, 8]: 13.7 (11.0-22.2) min
- Time to Tsp (spontaneous clotting), range [2, 8]: 7.4 to 54.6 min
- Change of CS (clot size) with increasing concentrations ([2]; all ADAGE patient samples): decreased
- Association of D (clot density) with DOAC concentration [2, 9]: significantly associated
- Relationship between time to spontaneous clot formation (Tsp) and DOAC levels [2, 9]: significant association
- Effect of DOAC concentration at Tmax (βC.pic) on fibrinography initial velocity of clot formation [2, 10]: ≈ 0.01723%
- Effect of DOAC concentration at Tmin (βC.res) on fibrinography initial velocity of clot formation [2, 11]: ≈ 0.1281%
- ETP (endogenous thrombin potential, ETP_ATG), median (IQR) ([3]; Tmax (peak)): 1036 (724-1501) AU⋅min/L
- ETP (endogenous thrombin potential, ETP_ATG), range ([3]; Tmax (peak)): 80-2078 AU⋅min/L
- Thrombin peak height (Cmax_ATG), median (IQR) ([3]; Tmax (peak)): 193 (98-243) AU/L
- Thrombin peak height (Cmax_ATG), range ([3]; Tmax (peak)): 8-354 AU/L
- Thrombography Tlag (Lag_ATG), median (IQR) ([3]; Tmax (peak)): 0.6 (0.4-0.8) min
- Thrombography Tlag (Lag_ATG), range ([3]; Tmax (peak)): 0.2 to 1.5 min
- Time to peak (Tmax_ATG), median (IQR) ([3]; Tmax (peak)): 2.6 (2.1-3.1) min
- Time to peak (Tmax_ATG), range ([3]; Tmax (peak)): 1.6 to 4.6 min
- ETP (endogenous thrombin potential, ETP_ATG), median (IQR) ([3]; Tmin (trough)): 1741 (1602-2290) AU⋅min/L
- ETP (endogenous thrombin potential, ETP_ATG), range ([3]; Tmin (trough)): 1111-2715 AU⋅min/L
- Thrombin peak height (Cmax_ATG), median (IQR) ([3]; Tmin (trough)): 349 (279-380) AU/L
- Thrombin peak height (Cmax_ATG), range ([3]; Tmin (trough)): 168-499 AU/L
- Thrombography Tlag (Lag_ATG), median (IQR) ([3]; Tmin (trough)): 0.2 (0.1-0.2) min
- Thrombography Tlag (Lag_ATG), range ([3]; Tmin (trough)): 0.1 to 0.5 min
- Time to peak (Tmax_ATG), median (IQR) ([3]; Tmin (trough)): 1.85 (1.6-2.1) min
- Time to peak (Tmax_ATG), range ([3]; Tmin (trough)): 1.6 to 2.1 min
- Change of ETP_ATG with increasing DOAC plasma concentrations ([3]; all ADAGE patient samples): decreased
- Effect of DOAC concentration at Tmax (βC.pic) on thrombography peak height (PH) [3, 10]: ≈ 0.4838%
- Effect of DOAC concentration at Tmin (βC.res) on thrombography peak height (PH) [3, 11]: ≈ 0.4447%
- Samples in which spontaneous clotting occurred [4]: 33%
- Change of Ast (stationary amplitude of thrombin moving peak) with increasing concentrations [5]: decreased
- Effect on Cmax_ATG, ETP_ATG and Ast compared with the other DOACs [5]: more pronounced effect
